In one assay the test system is K. pneumoniae (ATCC). Nature of the assay: Electroanalytically determined MIC / antimicrobial response curve, gram-negative bacteria. The format is cell-based, Klebsiella pneumoniae ATCC 27736. The source says:
(§1) Identical lots of media and antimicrobial agents were used in the susceptibility tests performed. The media used were trypticase soy agar (TSA) and TSB from Baltimore Biological Laboratories (BBL), Cockeysville, Maryland. The 12 antimicrobial agents used in the experiments, which were chosen on the basis of their clinical usefulness, were laboratory reference standards including the following antibiotics: penicillin G potassium, caphalothin sodium, tobramycin, vancomycin hydrochloride and streptomycin sulfate obtained from Eli Lilly and Co.; tetracycline and carbenicillin obtained from Pfizer Laboratories; ampicillin and sodium nafcillin from Wyeth Laboratories; kanamycin and methicillin from Bristol Laboratories; gentamicin from Schering.
(§2) The following cultures were obtained from Hoffmann-LaRoche, Inc. and were derived from the American Type Culture Collection (ATCC) organisms as indicated: Escherichia coli, "Seattle Strain" ATCC 25922, Klebsiella pneumoniae ATCC 27736; Pseudomonas aeruginosa, ATCC 9721. These bacteria are gram negative bacteria. The following bacteria are gram positive: Staphylococcus aureus, "Seattle Strain" ATCC 25923; Staphylococcus epiderdimis ATCC 14990; and Streptococcus pyogenes, ATCC 10389. In addition, clinical specimens of these same six organisms were obtained from sensitivity isolates from the University of Virginia Hospital Department of Clinical Pathology Bacteriology Section. These organisms, both pathogenic and non-pathogenic (Staphylococcus epidermidis), were chosen because they are some of the most frequently encountered organisms in clinical isolates.
(§3) Inocula were prepared by making a 100-fold dilution×2 of an overnight TSB culture of the organism to be tested in sterile TSB prewarmed to 35° C. Thus, the total dilution of overnight stock was 10^-4. From the 10^-4 series, 0.3 ml was transferred to a test tube (Falcon, disposable #2057) containing 2.7 ml of TSB if the growth control, or 2.6 ml of TSB plus 0.1 ml of a particular concentration of an appropriate antibiotic to be tested. The antibiotic was weighed on an analytical balance, according to each agent's activity standard, and diluted with sterile distilled water in a volumetric flask to achieve a stock solution of 1000 mcg/ml which was then frozen in small aliquots. Further dilutions as necessary for susceptibility testing were also achieved through the addition of sterile distilled water to this stock concentration. Viable counts were made by plating appropriate dilutions from the 10^-4 series on TSA and counting colonies after 24 hours incubation at 35° C. Viable counts were also made on each microorganism at the time of MDC and again at the end of the 24 hour test period to confirm the minimum inhibitory concentration (MIC).
(§4) The experimental apparatus used in this study to monitor the inhibition of growth due to the addition of antibiotics consisted of test tubes, up to and including 8, size 17×100 mm, each containing a sterilized (by boiling) Pt-SCE combination electrode (Sargent-Welch, S-30101-15), plus TSB, microorganisms, and antibiotic where appropriate, positioned in a 35° C. heating block. Leads from the electrode were connected to a high impedance (greater than 10^8 ohms) potentiometer, or voltage following device, which in turn was connected to a strip chart recorder (Hewlett-Packard type 680M). Microbial growth was measured by an increase in voltage in the negative direction with time as recorded on the strip chart recorder.
(§5) FIG. 12 is a stripchart recording of the antimicrobial response curve of a four channeled expriment involving a clinical specimen of the non-hydrogenproducing, Gram-positive bacteria Staphylococcus epidermidis treated with 0.012, 0.5 and 1.0 mcg/ml of the antibiotic ampicillin as shown in curves B, C and D respectively. […]

Assay [1] relates to S. epidermidis (clinical). Description: Electroanalytically determined MIC / antimicrobial response curve, gram-positive bacteria. Format: cell-based, Staphylococcus epidermidis. The settings on record: Staphylococcus epidermidis, 24 h.
Source text: as §1, §2, §3, §4, §5

The subject of the next assay is K. pneumoniae (clinical). Nature of the assay: Electroanalytically determined MIC, gram-negative bacteria. Format: cell-based, Klebsiella pneumoniae.
Source text: as §1, §2, §3
as §4, with “recorder. […]” for “recorder.”

The subject of another assay is S. aureus (clinical). Nature of the assay: Electroanalytically determined MIC, gram-positive bacteria. Format: cell-based. The settings on record: Staphylococcus aureus, 24 h.
Source text: as §1, §2, §3, §4, §5

A further assay relates to E. coli (clinical). Description: Electroanalytically determined MIC, gram-negative bacteria. Format: cell-based, Escherichia coli.
Source text: as §1, §2, §3, §4, §5

For another assay, the system named is P. aeruginosa (clinical). Described as above. The format is cell-based, Pseudomonas aeruginosa.
Source text: as §1, §2, §3, §4, §5

The subject of a further assay is S. epidermidis (ATCC). Description: Electroanalytically determined MIC, gram-positive bacteria. Format: cell-based, Staphylococcus epiderdimis ATCC 14990. Conditions: Staphylococcus epidermidis, 24 h.
Source text: as §1, §2, §3, §4, §5

A further assay concerns E. coli (ATCC). Description: Electroanalytically determined MIC, gram-negative bacteria. Format: cell-based, Escherichia coli, "Seattle Strain" ATCC 25922.
Source text: as §1, §2, §3, §4, §5

For another assay, the system named is S. aureus (ATCC). Description: Electroanalytically determined MIC, gram-positive bacteria. Format: cell-based, "Seattle Strain" ATCC 25923. The settings on record: Staphylococcus aureus, 24 h.
Source text: as §1, §2, §3, §4, §5

The next assay deals with P. aeruginosa (ATCC). Description: Electroanalytically determined MIC, gram-negative bacteria. Format: cell-based, Pseudomonas aeruginosa, ATCC 9721.
Source text: as §1, §2, §3, §4, §5

The next assay relates to S. pyogenes (ATCC). Description: Electroanalytically determined MIC, gram-positive bacteria. Format: cell-based, ATCC 10389. Conditions: Streptococcus pyogenes, 24 h.
Source text: as §1, with “Schering. […]” for “Schering.”
The experimental apparatus used in this study to monitor the inhibition of growth due to the addition of antibiotics consisted of test tubes, up to and including 8, size 17×100 mm, each containing a sterilized (by boiling) Pt-SCE combination electrode (Sargent-Welch, S-30101-15), plus TSB, microorganisms, and antibiotic where appropriate, positioned in a 35° C. heating block. […] Microbial growth was measured by an increase in voltage in the negative direction with time as recorded on the strip chart recorder. […]

A further assay has as its system S. pyogenes (clinical). The description is as above. The format is cell-based. Conditions: Streptococcus pyogenes, 24 h.
Source text: as §1, §2, §3, §4, §5

The mark [2] stands for this setting: Pseudomonas aeruginosa, P. aeruginosa (clinical), TSB, 35° C., 24 hour test period, read-out: MIC.
The mark [3] stands for this setting: Pseudomonas aeruginosa, P. aeruginosa (ATCC), TSB, 35° C., 24 hour test period, read-out: MIC.

A word on the MIC: it is the lowest concentration found to suppress growth.

Where a name gives a salt, the structure may show the parent alone. Read-outs that look alike come from different tables or passages of the source.

With `CN(C)[C@@H]1C(=O)C(C(N)=O)=C(O)[C@@]2(O)C(=O)C3=C(O)c4c(O)cccc4[C@@](C)(O)[C@H]3C[C@@H]12` [Tetra, tetracycline], the minimal inhibitory concentration (MIC) in the assay with K. pneumoniae (ATCC) (Klebsiella pneumoniae, 24 h) is 5 to 6 µg/mL; in assay [1] it was 2 µg/mL; in the assay on K. pneumoniae (clinical) (Klebsiella pneumoniae, 24 h), 5 to 6 µg/mL; with S. aureus (clinical), 2 µg/mL; in the assay with E. coli (clinical) (Escherichia coli, 24 h), 4 µg/mL; with P. aeruginosa (clinical) (Pseudomonas aeruginosa, 24 h), 64 µg/mL. Also, the minimum inhibitory concentration (MIC) in the assay with S. epidermidis (ATCC) was 1 to 2 µg/mL; in the assay on E. coli (ATCC) (Escherichia coli, 24 h), 1 µg/mL; in the assay with S. aureus (ATCC), 2 µg/mL; with P. aeruginosa (ATCC) (Pseudomonas aeruginosa, 24 h), 64 µg/mL.
Turning to gentamicin, the minimum inhibitory concentration (MIC) with K. pneumoniae (ATCC) (K. pneumoniae (ATCC), TSB, 35° C., 24 hour test period) was 0.5 µg/mL; in the assay with K. pneumoniae (clinical) (K. pneumoniae (clinical), TSB, 35° C., 24 hour test period), 0.5 µg/mL; with E. coli (clinical) (E. coli (clinical), TSB, 35° C., 24 hour test period), 1.0 µg/mL; in the assay on P. aeruginosa (clinical) (P. aeruginosa (clinical), TSB, 35° C., 24 hour test period), 4.0 µg/mL; with E. coli (ATCC) (E. coli (ATCC), TSB, 35° C., 24 hour test period) it was 0.5 µg/mL; in the assay on P. aeruginosa (ATCC) (P. aeruginosa (ATCC), TSB, 35° C., 24 hour test period) it was 2.0 µg/mL.
`CC1(C)S[C@@H]2[C@H](NC(=O)C(C(=O)O)c3ccccc3)C(=O)N2[C@H]1C(=O)O` (some centres unmarked) [Carb, carbenicillin]: the MIC in the assay on K. pneumoniae (ATCC) (Klebsiella pneumoniae, K. pneumoniae (ATCC), TSB, 35° C., 24 hour test period, read-out: MIC) was > 128 µg/mL; in the assay on K. pneumoniae (clinical) (Klebsiella pneumoniae, K. pneumoniae (clinical), TSB, 35° C., 24 hour test period, read-out: MIC), > 128 µg/mL; in the assay with E. coli (clinical) (Escherichia coli, E. coli (clinical), TSB, 35° C., 24 hour test period, read-out: MIC), 5 µg/mL; in the assay on P. aeruginosa (clinical) (setting [2]), 64 µg/mL; in the assay with E. coli (ATCC) (Escherichia coli, E. coli (ATCC), TSB, 35° C., 24 hour test period, read-out: MIC), 4 µg/mL; in the assay on P. aeruginosa (ATCC) (setting [3]), 64 µg/mL.
As for `NC[C@H]1O[C@H](O[C@H]2[C@H](O)[C@@H](O[C@H]3O[C@H](CO)[C@@H](O)[C@H](N)[C@H]3O)[C@H](N)C[C@@H]2N)[C@H](N)C[C@@H]1O` [Tobra, tobramycin], the MIC in the assay on P. aeruginosa (clinical) (setting [2]) is 8 µg/mL; in the assay on P. aeruginosa (ATCC) (setting [3]) it was 4 µg/mL.
Consider `NC[C@H]1O[C@H](O[C@H]2[C@H](O)[C@@H](O[C@H]3O[C@H](CO)[C@@H](O)[C@H](N)[C@H]3O)[C@H](N)C[C@@H]2N)[C@H](O)[C@@H](O)[C@@H]1O` [Kana, kanamycin], for which the MIC is 3 µg/mL with K. pneumoniae (ATCC) (Klebsiella pneumoniae, 24 h); 0.6 µg/mL in assay [1]; 4 µg/mL in the assay on K. pneumoniae (clinical) (Klebsiella pneumoniae, 24 h); 0.5 to 1 µg/mL in the assay with S. aureus (clinical); 4 µg/mL with E. coli (clinical) (Escherichia coli, 24 h); 64 µg/mL with P. aeruginosa (clinical) (Pseudomonas aeruginosa, 24 h). Moreover, the minimum inhibitory concentration (MIC) in the assay with S. epidermidis (ATCC) was 0.4 µg/mL; in the assay with E. coli (ATCC) (Escherichia coli, 24 h), 3 µg/mL; in the assay with S. aureus (ATCC) it was 0.2 µg/mL; with P. aeruginosa (ATCC) (Pseudomonas aeruginosa, 24 h) it was 32 to 64 µg/mL.
Take `[H]/N=C(/N)N[C@H]1[C@H](O)[C@@H](O)[C@H](O[C@@H]2O[C@@H](C)[C@](O)(C=O)[C@H]2O[C@@H]2O[C@@H](CO)[C@H](O)[C@@H](O)[C@@H]2NC)[C@@H](N/C(N)=N\[H])[C@@H]1O` [Strep, streptomycin sulfate]: the MIC was 0.1 µg/mL in the assay on S. pyogenes (ATCC); 5 to 6 µg/mL in the assay with K. pneumoniae (ATCC) (Klebsiella pneumoniae, 24 h); 4 to 6 µg/mL in assay [1]; 6 µg/mL in the assay with K. pneumoniae (clinical) (Klebsiella pneumoniae, 24 h); 0.1 µg/mL in the assay with S. pyogenes (clinical); 8 µg/mL with S. aureus (clinical). Further, the MIC with E. coli (clinical) (Escherichia coli, 24 h) amounted to 9 µg/mL; in the assay with S. epidermidis (ATCC) it was 4 µg/mL; with E. coli (ATCC) (Escherichia coli, 24 h), 9 µg/mL; in the assay on S. aureus (ATCC), 8 µg/mL.

These data come from US4246343A, “Microbial detection and enumeration method and apparatus” (University of Virginia and National Aeronautics & Space …, priority 1979, dated 1981).
